The subject of assay [1] is Catharanthus roseus. In words: Substrate specificity for NADPH-dependent dehydrogenase of catharanthus roseus supernatant fraction. Format: functional.
Assay [2] concerns Catharanthus roseus. In words: Substrate specificity for NADPH-dependent dehydrogenase of catharanthus roseus membrane fraction. In kind it is functional.

Structures are written as SMILES.

The source of these data is ChEMBL document CHEMBL1151547, “Enantioselective reduction of ethyl 3-methyl-2-oxobutanoate by an enzymatic system from callus of catharanthus roseus” (1994).

Consider `CCCCCCCCC(=O)C(F)(F)F`, for which the Activity in the assay with Catharanthus roseus [1] and with Catharanthus roseus [2] was 0 in each case.
For `CCOC(=O)CC(C)=O`, the Activity in the assay on Catharanthus roseus [1] and in the assay on Catharanthus roseus [2] was 0 each time.
For `CCOC(=O)C(=O)CC`, the Activity in the assay on Catharanthus roseus [1] was found to be 68; in the assay with Catharanthus roseus [2], 65.
Taken in the same sequence, the figures for `CCC(=O)C(=O)O` were 0 and 0.
With `CCCCCC(=O)C(=O)OCC`, the Activity in the assay on Catharanthus roseus [1] and in the assay with Catharanthus roseus [2] was 50 throughout.
With `CCOC(=O)C(=O)C(C)C`, the Activity in the assay on Catharanthus roseus [1] and with Catharanthus roseus [2] was 100 each time.
As to `COC(=O)CC(=O)CCl`, the Activity in the assay on Catharanthus roseus [1] was determined as 12; with Catharanthus roseus [2], 0.
As for `O=CC(O)CO` (stereo not drawn), the Activity in the assay with Catharanthus roseus [1] and in the assay with Catharanthus roseus [2] was 0 each time.
With `O=C(c1ccccc1)C(F)(F)F`, the values for the Activity in the assay on Catharanthus roseus [1] and with Catharanthus roseus [2] were 65 and 6, respectively.
The matching figures for `CCOC(=O)C(C)C(C)=O` (stereo not drawn): 29 and 0.
For `CC(C)CC(=O)C(=O)O` [2-Oxoisohexanoate], the Activity with Catharanthus roseus [1] and with Catharanthus roseus [2] was 0 in each case.
As for `CC(C)C(=O)C(=O)O` [2-Oxoisovalerate], the Activity in the assay with Catharanthus roseus [1] and with Catharanthus roseus [2] was 0 in each case.
For `CC=O` [ACETALDEHYDE], the Activity with Catharanthus roseus [1] and with Catharanthus roseus [2] was 0 each time.
Turning to `CCOC(=O)C(C)=O` [ETHYL PYRUVATE], the values for the Activity with Catharanthus roseus [1] and with Catharanthus roseus [2] were 70 and 59, respectively.
